Source: US7534818B1 (priority 2003, dated 2009)

How the values were obtained:
rat bladder = conditions: MSC 0.75 mg/rat/d orally; for bladder histology (hemorrhage): 24 hrs after cyclophosphamide 150 mg/kg×1 i.v., first dose 14 days before, hematoxylin-eosin sections, FIG. 2
Text: Bladders were removed and fixed in formalin. Paraffin embedded sections were obtained and stained by hematoxylin-eosin staining by standard methods.

rats = conditions: days 30 and 45 after cyclophosphamide 100 mg/kg i.v.×1; MSC 0.75 mg/rat/d×21, first dose 14 days before; FIG. 4
Description: Regrowth of hair was assessed at 30, 45 and 90 days post initiation of cyciophosphamide treatment.

[1] = tested on: human squamous cell carcinoma of head and neck tumor xenografts (A253); assay: Anti-tumor activity in A253 xenografts; assay type: in vivo; conditions: A253 xenografts in nude mice; cyclophosphamide 100 mg/kg×1, i.v., alone or in combination with MSC
normal rats = assay: Identification of non-toxic doses of MSC (survival, weight loss) in normal rats; assay type: in vivo, adult Fisher rats; conditions: for animals surviving treatment: 21 days
Description: This example describes the identification of non-toxic doses for the use of selenium. To illustrate this embodiment, different groups of adult Fisher rats were administered various doses of selenium for 21 days and survival of rats was monitored. Each group had 6 rats and each exempt group was repeated 3-4 times. […] Thus, for evaluation of the protective effect of MSC against chemotherapy induced toxicity, the dose and schedule of MSC used was 0.75 mg/rat/d up to 21 days orally.
Bladders were removed and fixed in formalin.

[2] = up to 0.75 mg/rat/d×21 MSC, adult Fisher rats

Compound | bladder mucosal edema (rat bladder; 4 hrs after cyclophosphamide 150 mg/kg×1 i.v., FIG. 3) | bladder histology (hemorrhage) (rat bladder) | regrowth of hair (alopecia) (rats) | Tumor growth inhibition [1] [%] | weight loss (normal rats; 0.75 mg/rat/d MSC orally up to 21 days, Fisher rats 120-180 g, stated as less than 10% of total body weight) | animals surviving treatment (normal rats; 1 mg MSC dose, adult Fisher rats) [%] | animals surviving treatment (normal rats; 1.25 mg MSC dose, adult Fisher rats) [%] | lethality (normal rats; [2]) | toxicity (normal rats; [2]) | weight loss (normal rats; [2])
O=P1(N(CCCl)CCCl)NCCCO1 (centres unmarked) [cyclophosphamide] | acute mucosal edema | severe hemorrhagic cystitis | only partial recovery | 35 |  |  |  |  |  | 
C[Se]C[C@H](N)C(=O)O [MSC, 5-methylselenocysteine] |  | no change |  |  | 7.4±2.4 | 75 | 0 | no lethality | not toxic | less than 5%
